Read-outs that look alike come from different tables or passages of the source.
How the values were obtained:
female hairless mice = assay type: in vivo; settings: for Death/Total: animals died from a group of 5; for % Weight Change: end of 14 day test or at death; for Flaking/scaling grade: scale 0 to +5
Procedure: Specifically, tests to determine skin toxicity were performed on certain examplary compounds in accordance with the present invention, and on certain analogous compounds which lack the R3 substituent in accordance with Formula 1, 2 or 3. A “Two Week Acute Skin Toxicity Study of Multiple Topical Applications in Female Hairless Mice” is conducted as follows: a daily dose (expressed in nanomoles) of the “test compound” is applied to the skin on the back of hairless mice (usually a test group of 5 mice for a given compound). The daily dose of the test compound is applied for 5 consecutive days, followed by two days when the test compound is not administered, and is thereafter administered again for 4 more consecutive days. On the 14th day the test animals if still alive, are sacrificed to perform certain studies and tests. In the meanwhile certain tests and observations are made on a daily basis with respect to body weight and skin condition. Skin condition is graded as “flaking/scaling” and “abrasion” on a scale of 0 to +5 where the various numbers correspond to the following observations.
Results of these tests are summarized in Table 3, where daily dose is expressed in nanomoles, weight loss of the test animals is in percentages at the end of the 14 day test period, or at the time the test animal expired, and mortality is expressed with the number of animals which died from a group of 5.

[1] = system: tissue transglutaminase (tTGASE) in HL-60 cells; assay: Tissue Transglutaminase Assay (tTGASE) in HL-60 Cells; assay type: cell-based; settings: FIGS. 6-9
Procedure: Other assays in which the retinoid like activity of the compounds used in accordance with the invention are confirmed are the HL-60 transglutaminase induction and HL-60 differentiation assay, the procedures of which are described as follows.
HL-60 cells were grown as a suspension culture in T-162 cm^2 flasks in serum-free RPMI 1640 medium supplemented with insulin (5 μg/ml), transferrin (5 μg/ml), and selenium (3 nM). The cells (1×10^6 cells/well, in 6-well dishes) were treated with serial dilutions of test compounds in the above RPMI 1640 medium which was additionally supplemented with […] dibutyryl cyclic adenosine monophosphate, a component found to be necessary for efficient differentiation of the cells. Ethanol was used in the vehicle control cultures. After 1 days of incubation at 37° C. in a 7.5% CO2 incubator, the cells were collected in a set of tubes and pelleted by centrifugation. The cells were lyzed in a buffer containing 20 mM Tris-HCl, pH 7.5, 1 mM EDTA, and 0.5% Triton X-100. An aliquot of the cell lysate was assayed for tTGASE activity in a reaction mixture containing 20 mM Tris-HCl, pH 7.5, 5 mM CaCl2, 2 mg/ml dimethylcasein, 15 mM B-mercaptoethanol and 50 μCi/ml [2,3-^3H] putrescine dihydrochloride. The reaction was carried out for 60 minutes in a 37° C. shaking water bath. The reaction was stopped by an addition of 10% trichloroacetic acid containing 0.1% putrescein. An aliquot of the stopped reaction mixture was spotted on Whatman 3 MM filter discs. The filter discs, along with the control blank filter discs, were washed twice with 5% trichloroacetic acid containing 0.1% putrescein and twice with methanol. After drying under a heat lamp, the radioactivity in the filter discs was determined by scintillation counting. An aliquot of the cell lysates was also assayed for […] by the Bradford method (Bio-Rad). After subtracting the radioactivity from the control blank filter discs, the data were calculated and expressed as pmol/min/mg protein.
As is well understood in the art, induction of tranglutaminase activity in the just-described assay is an early marker of retinoid like activity.

gestating ICR mice = assay: in vivo teratology study, single oral dose on day 11 of gestation; parameters: species or system mouse; settings: for # Litters Normal / Teratogenic Effects % Cleft Palate / Teratogenic Effects % Limb Defects / Teratogenic Effects % Resorbed: day 11 of gestation, ICR mice
Procedure: The methodology of the study is described as follows:
ICR mice (Ace Animals, Boyertown, Pa.) were used. Mature male and virgin female ICR mice were housed in environmentally controlled rooms and acclimatized to a 12 hour light/dark cycle (light cycle 6 A.M. to 6 P.M.) for 2 weeks prior to use. All animals were maintained on Purina Lab Chow and tap water ad libitum. A group of 3-4 females was caged with a single male of proven fertility for 4 hours. Presence of a vaginal plug immediately afterward was regarded as evidence of successful mating, and this day was designated as day 0 of gestation.
[…] All animals were killed by cervical dislocation under mild ether anesthesia on day 17 of gestation. Upon laparotomy, the fetuses were examined for external malformations and weighed; one-half of each litter was then fixed in 95% ethanol and processed for staining of the skeleton by the rapid, alizarin red-S dye method. These preparations were examined under a dissection microscope to screen for abnormalities in the axial and the appendicular skeleton. The other half of each litter was fixed in Bouin's solution and examined by freehand razor serial sectioning to screen for anomalies of the brain, face, and palate.
Differences in dose-related incidence of malformations and resorptions were assessed by computing percentages of affected conceptuses among total implantation sites. The groups were compared statistically by a method based on Student's t-tests of arcs in square root transformed percentages. Values at 0.05 probability level were considered significant. The median effective dose was calculated by logarithmic curve fitting of the dose-response data.

human sebocyte cultures = assay: human sebocyte culture 3H-thymidine incorporation (DNA synthesis, anti-proliferative effect); assay type: cell-based; settings: human sebocytes, 8 days treatment, FIG. 2
Excerpt: The retinoid like activity of the compounds used in accordance with the method of treatment of the present invention and of the novel compounds of the invention can be confirmed by several assay procedures. An assay involving human sebocyte cultures measures the inhibition of ^3H-thymidine into cells, and thus measures inhibition of DNA synthesis and thus an anti-proliferative effect on sebocyte (i.e. a sebostatic effect). This assay is also considered a specific assay for effectiveness of a compound as a potential anti-acne drug. The test is conducted as follows.
Face-lift or forehead reduction skins from cosmetic surgeries were used as sources of human sebaceous gland cells (sebocytes).
Isolated sebocytes were plated in type 1 collagen coated-dishes in DMEM/F12 (1:1) medium supplemented with 8% fetal bovine serum, 2% human serum, 10 ng/ml epidermal growth factor, 1 nM cholera toxin, 1 μM hydrocortisone, and penicillin/streptomycin/amphotericin B. Secondary cultures were prepared by plating Dispase dissociated cells in collagen coated 24-well plates.
Sub-confluent secondary cultures were treated with the test compounds or ethanol vehicle every 2-3 days for 8 days in the above medium from which the total serum concentration was reduced to 2% and hydrocortisone was not included. During the last 6 hours of treatment, the cultures were labeled with 2 μCi/ml ^3H-thymidine. DNA from the cells were extracted by thichoroacetic acid and perchloric acid, and assayed for radioactivity by scintillation counting and for content of DNA by the diphenylamine calorimetric method. The results were expressed as CPM/μg DNA, or as per cent of vehicle control which incorporated about 1,000-1,500 cpm/μg DNA.

[2] = daily dose 75 nanomoles topical
[3] = daily dose 124 nanomoles topical
[4] = daily dose 1240 nanomoles topical

CCOC(=O)c1ccc(/C=C(\C)c2cc3c(cc2C)C(C)(C)CCC3(C)C)cc1 [AGN191422, Ethyl 4-[(E)-2-(5,6,7,8-Tetrahydro-3,5,5,8,8-pentamethylnaphthalen-2-yl)propen-1-yl]benzoate]
Death/Total (female hairless mice; daily dose 60 nanomoles topical): 0/5
Death/Total (female hairless mice; daily dose 64 nanomoles topical): 0/5

CCOC(=O)c1ccc(/C=C(\C)c2cc(C(C)(C)C)ccc2C)cc1 [AGN191544, Ethyl 4-[(E)-2-(2-Methyl-5-tert-butylphenyl)propen-1-yl]benzoate]
Death/Total (female hairless mice; daily dose 800 nanomoles topical): 0/5

CCOC(=O)c1ccc(/C=C(\C)c2cc3c(cc2C)OC(C)(C)CC3(C)C)cc1 [AGN191549, Ethyl 4-[(E)-2-(2,2,4,4,7-Pentamethyl-chroman-6-yl)propen-1-yl]-benzoate]
Death/Total (female hairless mice; daily dose 300 nanomoles topical): 0/5

C/C(=C\c1ccc(C(=O)O)cc1)c1cc2c(cc1C)C(C)(C)CCC2(C)C [AGN 191440]
induction of transglutaminase activity [1]: active
times less teratogenic than AGN 191183 (gestating ICR mice; comparison of doses producing teratogenic effects in ICR mice): approximately 100 times
# Litters Normal (gestating ICR mice; single oral dose 1 mg/kg): 5
Teratogenic Effects % Cleft Palate (gestating ICR mice; single oral dose 1 mg/kg): 13%
Teratogenic Effects % Limb Defects (gestating ICR mice; single oral dose 1 mg/kg): 17%
Teratogenic Effects % Resorbed (gestating ICR mice; single oral dose 1 mg/kg): 19%
# Litters Normal (gestating ICR mice; single oral dose 10 mg/kg): 1
Teratogenic Effects % Cleft Palate (gestating ICR mice; single oral dose 10 mg/kg): 88%
Teratogenic Effects % Limb Defects (gestating ICR mice; single oral dose 10 mg/kg): 75%
Teratogenic Effects % Resorbed (gestating ICR mice; single oral dose 10 mg/kg): 2%
# Litters Normal (gestating ICR mice; single oral dose 100 mg/kg): 0
Teratogenic Effects % Resorbed (gestating ICR mice; single oral dose 100 mg/kg): 100%
Death/Total (female hairless mice; [2]): 0/5
% Weight Change (female hairless mice; [2]): 3.1%
Flaking/scaling grade (female hairless mice; [2]): +2 (Slight (˜25% or less))
Death/Total (female hairless mice; [3]): 0/5
% Weight Change (female hairless mice; [3]): −2.7%
Flaking/scaling grade (female hairless mice; [3]): +2 (Slight (˜25% or less))
Death/Total (female hairless mice; [4]): 3/5
% Weight Change (female hairless mice; [4]): −19.5%
Flaking/scaling grade (female hairless mice; [4]): +4 (Moderate (greater than ˜50%, less than ˜75%))

C/C(=C\c1ccc(C(=O)O)cc1)c1cc2c(cc1Cl)C(C)(C)CCC2(C)C [AGN 191642, 4[(E)-2-(3-Chloro-5,6,7,8-tetrahydro-5,5,8,8-tetramethylnaphthalen-2-yl)propen-1-yl]benzoic Acid]
induction of transglutaminase activity [1]: active

C/C(=C\c1ccc(C(=O)O)s1)c1cc2c(cc1C)C(C)(C)CCC2(C)C [AGN 191659, 5-[(E)-2-(5,6,7,8-Tetrahydro-3,5,5,8-pentamethylnaphthalen-2-yl)propen-1-yl]-2-thiophenecarboxylic Acid]
induction of transglutaminase activity [1]: active
inhibition of 3H-thymidine incorporation (effectiveness in sebocyte assay) (human sebocyte cultures): effective

Source: US6624188B1, “Method of treatment with compounds having retinoid-like activity and reduced skin toxicity and lacking teratogenic effects” (Allergan, Inc., priority 1992, dated 2003)
